# Laboratory results as given in patent publication US11076594B2, “Pyrazolone compound or salt thereof, preparation method therefor, herbicide composition and use thereof” (QINGDAO KINGAGROOT CHEMICAL COMPOUNDS CO., LTD., priority 2015, dated 2021).
# Tests used:
# Type in all cases: in vivo
# Conditions in all cases: post-emergence spray at 4-5 leaf stage, 250 g/ha active ingredient with 450 kg/ha water, rated after 3 weeks in greenhouse
# wheat = assay: post-emergence stage experiment, crop (Table 1)
# Outline: (§1)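 Greenhouse pot test; foliar spray at 4-5 leaf stage; acetone + Tween 80 + water formulation; 3 wk post-treatment fresh-weight control rate.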
# corn = assay: post-emergence stage experiment, crop (Table 1)
# Outline: as §1
# crab grass = assay: weed control effect in post-emergence stage (Table 1); set-up: key: Level 10: completely dead; Level 9: above 95% growth control rate; Level 8: above 90% growth control rate; Level 7: above 80% growth control rate; Level 6: above 70% growth control rate; Level 5: above 60% growth control rate; Level 4: above 50% growth control rate; Level 3: above 20% growth control rate; Level 2: 5%-20% growth control rate; Level 1: below 5% growth control rate
# Outline: as §1
# Indian mallow = assay: as above; set-up: key: Level 10: completely dead; Level 9: above 95% growth control rate; Level 8: above 90% growth control rate; Level 7: above 80% growth control rate; Level 6: above 70% growth control rate; Level 5: above 60% growth control rate; Level 4: above 50% growth control rate; Level 3: above 20% growth control rate; Level 2: 5%-20% growth control rate; Level 1: below 5% growth control rate
# Outline: as §1
# bidens bipinnata = assay: as above; set-up: key: Level 10: completely dead; Level 9: above 95% growth control rate; Level 8: above 90% growth control rate; Level 7: above 80% growth control rate; Level 6: above 70% growth control rate; Level 5: above 60% growth control rate; Level 4: above 50% growth control rate; Level 3: above 20% growth control rate; Level 2: 5%-20% growth control rate; Level 1: below 5% growth control rate
# Outline: as §1
# foxtail = assay: as above; set-up: key: Level 10: completely dead; Level 9: above 95% growth control rate; Level 8: above 90% growth control rate; Level 7: above 80% growth control rate; Level 6: above 70% growth control rate; Level 5: above 60% growth control rate; Level 4: above 50% growth control rate; Level 3: above 20% growth control rate; Level 2: 5%-20% growth control rate; Level 1: below 5% growth control rate
# Outline: as §1
# rorippa indica = assay: as above; set-up: key: Level 10: completely dead; Level 9: above 95% growth control rate; Level 8: above 90% growth control rate; Level 7: above 80% growth control rate; Level 6: above 70% growth control rate; Level 5: above 60% growth control rate; Level 4: above 50% growth control rate; Level 3: above 20% growth control rate; Level 2: 5%-20% growth control rate; Level 1: below 5% growth control rate
# Outline: as §1
# echinochloa = assay: as above; set-up: key: Level 10: completely dead; Level 9: above 95% growth control rate; Level 8: above 90% growth control rate; Level 7: above 80% growth control rate; Level 6: above 70% growth control rate; Level 5: above 60% growth control rate; Level 4: above 50% growth control rate; Level 3: above 20% growth control rate; Level 2: 5%-20% growth control rate; Level 1: below 5% growth control rate
# Outline: as §1
# rice = assay: post-emergence stage experiment, crop (Table 1)
# Outline: as §1
SMILES,"effect on crop, Wheat (level) (wheat)","effect on crop, Corn (level) (corn)","weed control effect, Crab grass (level) (crab grass)","weed control effect, Indian mallow (level) (Indian mallow)","weed control effect, Bidens bipinnata (level) (bidens bipinnata)","weed control effect, Green foxtail (level) (foxtail)","weed control effect, Rorippa indica (level) (rorippa indica)","weed control effect, Echinochloa (level) (echinochloa)","effect on crop, Rice (level) (rice)"
Cc1nn(C)c(OC(=O)c2cnn(C)c2)c1C(=O)c1ccc(C(F)(F)F)c(N2CCCCCC2=O)c1Cl [Compound 057],0,0,1 (Level 1: below 5% growth control rate),10,5 (Level 5: above 60% growth control rate),1 (Level 1: below 5% growth control rate),10,4 (Level 4: above 50% growth control rate),3 (Level 3: above 20% growth control rate)
Cn1ncc(C(=O)c2ccc(C(F)(F)F)c(-n3cccn3)c2Cl)c1O [Compound 064],3 (Level 3: above 20% growth control rate),7 (Level 7: above 80% growth control rate),7 (Level 7: above 80% growth control rate),10,7 (Level 7: above 80% growth control rate),10,9 (Level 9: above 95% growth control rate),5 (Level 5: above 60% growth control rate),2 (Level 2: 5%-20% growth control rate)
CCOC(=O)Oc1c(C(=O)c2ccc(C(F)(F)F)c(-n3cccn3)c2Cl)c(C)nn1C [Compound 069],0,0,3 (Level 3: above 20% growth control rate),10,10,10,0,6 (Level 6: above 70% growth control rate),5 (Level 5: above 60% growth control rate)
Cc1nn(C)c(OC(=O)c2cnn(C)c2)c1C(=O)c1ccc(C(F)(F)F)c(-n2cccn2)c1Cl [Compound 070],0,3 (Level 3: above 20% growth control rate),4 (Level 4: above 50% growth control rate),10,5 (Level 5: above 60% growth control rate),9 (Level 9: above 95% growth control rate),5 (Level 5: above 60% growth control rate),6 (Level 6: above 70% growth control rate),3 (Level 3: above 20% growth control rate)
Cn1nc(C2CC2)c(C(=O)c2ccc(C(F)(F)F)c(-n3cccn3)c2Cl)c1O [Compound 073],1 (Level 1: below 5% growth control rate),3 (Level 3: above 20% growth control rate),5 (Level 5: above 60% growth control rate),10,2 (Level 2: 5%-20% growth control rate),10,7 (Level 7: above 80% growth control rate),5 (Level 5: above 60% growth control rate),8 (Level 8: above 90% growth control rate)
CCOc1c(C(=O)Oc2c(C(=O)c3ccc(C(F)(F)F)c(-n4cccn4)c3Cl)c(C3CC3)nn2C)cnn1C [Compound 074],1 (Level 1: below 5% growth control rate),3 (Level 3: above 20% growth control rate),4 (Level 4: above 50% growth control rate),10,4 (Level 4: above 50% growth control rate),9 (Level 9: above 95% growth control rate),10,6 (Level 6: above 70% growth control rate),9 (Level 9: above 95% growth control rate)
CCOC(=O)Oc1c(C(=O)c2ccc(C(F)(F)F)c(-n3ccc(C)n3)c2Cl)c(C)nn1C [Compound 078],0,0,4 (Level 4: above 50% growth control rate),10,10,7 (Level 7: above 80% growth control rate),0,7 (Level 7: above 80% growth control rate),4 (Level 4: above 50% growth control rate)
Cc1cnn(-c2c(C(F)(F)F)ccc(C(=O)c3cnn(C)c3O)c2Cl)c1 [Compound 080],2 (Level 2: 5%-20% growth control rate),3 (Level 3: above 20% growth control rate),6 (Level 6: above 70% growth control rate),7 (Level 7: above 80% growth control rate),8 (Level 8: above 90% growth control rate),10,7 (Level 7: above 80% growth control rate),5 (Level 5: above 60% growth control rate),1 (Level 1: below 5% growth control rate)
CCOC(=O)Oc1c(C(=O)c2ccc(C(F)(F)F)c(-n3cc(C)cn3)c2Cl)c(C)nn1C [Compound 085],0,0,8 (Level 8: above 90% growth control rate),10,10,10,2 (Level 2: 5%-20% growth control rate),9 (Level 9: above 95% growth control rate),6 (Level 6: above 70% growth control rate)
Cc1cnn(-c2c(C(F)(F)F)ccc(C(=O)c3c(C4CC4)nn(C)c3O)c2Cl)c1 [Compound 089],0,1 (Level 1: below 5% growth control rate),1 (Level 1: below 5% growth control rate),10,3 (Level 3: above 20% growth control rate),2 (Level 2: 5%-20% growth control rate),9 (Level 9: above 95% growth control rate),5 (Level 5: above 60% growth control rate),1 (Level 1: below 5% growth control rate)
Cc1cc(C)n(-c2c(C(F)(F)F)ccc(C(=O)c3c(C)nn(C)c3OC(=O)c3cn(C)nc3C)c2Cl)n1 [Compound 094],0,1 (Level 1: below 5% growth control rate),3 (Level 3: above 20% growth control rate),3 (Level 3: above 20% growth control rate),2 (Level 2: 5%-20% growth control rate),1 (Level 1: below 5% growth control rate),0,1 (Level 1: below 5% growth control rate),0
